Measured values from US4233403A, “Amylase assay” (E. I. Du Pont de Nemours and Company, priority 1978, dated 1980).
Several values for one entry are separate records, joined by “and”; a condition that tells them apart may be missing. Equal entries are not always repeated.

What was measured:
α-amylase [1] = assay: amylase assay with nitrophenyl oligosaccharide substrate plus α-glucosidase, rate at 410 nm, standard curve; assay type: biochemical; settings: for Sensitivity: 4 mg/3 ml G4 pNp, 7.5 IU/3 ml α-glucosidase, pH 6.5, 37° C., 410 nm, from standard curve
Procedure: A sample of α-(4-nitrophenyl) maltotetraoside (G4 pNp) prepared in accordance with Example 1H of U.S. Patent Application Ser. No. 704,975, filed on the same day as this application, was dissolved in 66.7 mM sodium phosphate buffer, pH 6.5, to provide various substrate concentrations ranging from 2 to 8 mg/3 ml. As described in U.S. Ser. No. 704,975, this substrate sample has been purified using a Sephadex® LH-20 Chromatographic Column. α-Glucosidase of various concentrations ranging from 2.5 to 12.5 International Units per three milliliters of solution (IU/3 ml) was then added to the substrate solution and the volume of the solution was brought up to 3.0 ml. The solution was incubated at 37° C. for 1 to 10 minutes.
(§1) After the blank rate was measured at 410 nm, using a Gilford spectrophotometer, the reaction was initiated by adding 0.1 ml of an Elevated Enzyme Control Product sold by the E. I. du Pont de Nemours and Company (1150 Somogyi Units per deciliter (SU/dl) amylase) diluted 1:1 with Du Pont Enzyme Diluent. This level of amylase is approximately six times the upper normal serum level. The total reaction rate was then measured using the Gilford spectrophotometer, and by subtracting the blank rate from the total rate, the net reaction rate was obtained.
Using these optimum values of G4 pNp and α-glucosidase in a reaction solution of 3 ml, the reaction rates for various amylase sample concentrations were measured and a standard curve was generated. From this curve, the sensitivity in mA/min/SU/dl was measured. The standard curve for this sample is given in FIG. 1; the blank rate and sensitivity are given for this and other examples in Table II.
(§2) The G4 pNp so formed was dissolved in 66.7 mM sodium phosphate buffer, pH 6.5, to provide a substrate concentration of 4 mg/3 ml. Then 7.5 IU/3 ml of α-glucosidase was added to the substrate solution and the volume of the solution was brought up to 3.0 ml. The solution was incubated at 37° C. for one to ten minutes.
(§3) After the blank rate was measured, as described in Example 1 above, the reaction was […] by adding 0.1 ml of Du Pont Elevated Enzyme Control Product, diluted 1:1 with Du Pont Enzyme Diluent. The reaction rates for various amylase sample concentrations were measured as discussed in Example 1 above, and a standard curve was generated. From this curve, the sensitivity in mA/min/SU/dl was measured.
as §2, with “A sample of α-(4-nitrophenyl) maltotetraoside, prepared in accordance with Example 1G of U.S. Patent Application Ser. No. 704,975,” for “The G4 pNp so formed”
(§4) After the blank rate was measured in a Gilford spectrophotometer at 410 nm, the reaction was initiated by adding 0.1 ml of the Du Pont Elevated Enzyme Control Product, diluted 1:1 with Du Pont Enzyme Diluent. The reaction rates for the various amylase sample concentrations were measured, using the Gilford spectrophotometer, and a standard curve was generated. From this curve, the sensitivity in mA/min/SU/dl was measured.
A sample of α-(4-nitrophenyl) maltopentaoside (G5 pNp), prepared in accordance with Example 2E of U.S. Patent Application Ser. No. 704,975, was dissolved in 66.7 mM sodium phosphate buffer, pH 6.5, to provide various substrate concentrations ranging from 4.0 to 12.0 mg/3 ml. α-Glucosidase of various activity ranging from 15 to 45 IU/3 ml was then added to the substrate solution and the volume of the solution was brought up to 3.0 ml. The solution was incubated at 37° C. for one to ten minutes.
Initial tests were conducted using 4.0 mg/3 ml G5 pNp and three α-glucosidase concentrations, 7.0, 14.0, and 28.0 IU/3 ml. […]

α-glucosidase = assay: blank rate: release of 4-nitrophenol from the substrate by the maltase without amylase; assay type: biochemical
Text: When a maltase, such as α-glucosidase is used, a side reaction which gives rise to a blank rate occurs because of the reactivity of the maltase with the substrate. This means that even in the absence of α-amylase, there will be release of the phenol. Since the maximum velocity of product release from maltase decreases with increasing n, the growth of a blank rate is slower as n increases. One would expect, then, that the blank rate for G5 would be less than that for G4. This is verified by experimentation. However, an additional factor is involved in the choice between higher and lower oligosaccharides (i.e., G4 or G5) as the substrate. In all reactions of the substrate with amylase and reactions of maltase with the substrate, the rate increases, as a function of substrate concentration, to an optimum, at which point it levels off. The substrate concentration at which optimization occurs appears to increase with increasing n so that more of the substrate (and the maltase) must be used to optimize (linearize) the standard curve. For expensive chemicals, this is an important consideration.
A sample of α-(4-nitrophenyl) maltotetraoside (G4 pNp) prepared in accordance with Example 1H of U.S. Patent Application Ser. No. 704,975, filed on the same day as this application, was dissolved in 66.7 mM sodium phosphate buffer, pH 6.5, to provide various substrate concentrations ranging from 2 to 8 mg/3 ml. […]
as §1, with “This level of amylase is approximately six times the upper normal serum level.” left out, “obtained. […]” for “obtained.”
as §3, with “measured. […]” for “measured.”
as §4, with “measured. […]” for “measured.”

α-amylase [2] = assay: cleavage of α-(4-nitrophenyl)maltoside by α-amylase; assay type: biochemical, human
Procedure: A. P. Jansen and P. G. A. B. Wydeveld, Nature, 182, 525 (1958) postulate that α-(p-nitrophenyl)maltoside could be a substrate for an amylase assay. […] They reported: (1) Incubation of samples of human urine, saliva, duodenal contents and only incidentally serum with α-(p-nitrophenyl)maltoside at 37° for 16 hours produces 4-nitrophenol, identified spectrophotometrically by mixing the hydrolyzate with 0.02 N sodium hydroxide. (2) The hydrolysis was inhibited by protein precipitants such as 10% trichloroacetic acid and 0.5 N silver nitrate. […] In contrast to the teaching of Jansen et al., the method of this invention produces amylase analyses in one hour or less.

[3] = 4 mg/3 ml G4 pNp, 7.5 IU/3 ml α-glucosidase, 66.7 mM sodium phosphate pH 6.5, 37° C., 410 nm, no amylase

Row | SMILES | Sensitivity (α-amylase [1]) | Blank Rate (α-glucosidase; [3]) | further results
1 | O=[N+]([O-])c1ccc(O[C@H]2O[C@H](CO)[C@@H](O[C@H]3O[C@H](CO)[C@@H](O[C@H]4O[C@H](CO)[C@@H](O[C@H]5O[C@H](CO)[C@@H](O)[C@H](O)[C@H]5O)[C@H](O)[C@H]4O)[C@H](O)[C@H]3O)[C@H](O)[C@H]2O)cc1 [Example 4, α-(4-nitrophenyl) maltotetraoside] | 0.116 mA/min/SU/dl | 3.0 mA/min | 
2 | O=[N+]([O-])c1ccc(O[C@H]2O[C@H](CO)[C@@H](O[C@H]3O[C@H](CO)[C@@H](O[C@H]4O[C@H](CO)[C@@H](O[C@H]5O[C@H](CO)[C@@H](O[C@H]6O[C@H](CO)[C@@H](O)[C@H](O)[C@H]6O)[C@H](O)[C@H]5O)[C@H](O)[C@H]4O)[C@H](O)[C@H]3O)[C@H](O)[C@H]2O)cc1 [G5 pNp, α-(4-nitrophenyl) maltopentaoside] |  |  | Sensitivity (estimated, non-linear curves) (α-amylase [1]; 4.0 mg/3 ml G5 pNp, α-glucosidase 7.0, 14.0, 28.0 IU/3 ml): greater than 0.160 mA/min/IU/dl; Blank Rate (α-glucosidase; 4.0 mg/3 ml G5 pNp, α-glucosidase 7.0, 14.0 and 28.0 IU/3 ml (each case), pH 6.5, 37° C.): 3.0 mA/min
3 | O=[N+]([O-])c1ccc(O[C@H]2O[C@H](CO)[C@@H](O[C@H]3O[C@H](CO)[C@@H](O[C@H]4O[C@H](CO)[C@@H](O[C@H]5O[C@H](CO)[C@@H](O)[C@H](O)[C@H]5O)[C@H](O)[C@H]4O)[C@H](O)[C@H]3O)[C@H](O)[C@H]2O)cc1 [Example 2, α-(4-nitrophenyl) maltotetraoside] | 0.231 mA/min/SU/dl |  | 
4 | O=[N+]([O-])c1ccc(O[C@H]2O[C@H](CO)[C@@H](O[C@H]3O[C@H](CO)[C@@H](O[C@H]4O[C@H](CO)[C@@H](O[C@H]5O[C@H](CO)[C@@H](O)[C@H](O)[C@H]5O)[C@H](O)[C@H]4O)[C@H](O)[C@H]3O)[C@H](O)[C@H]2O)cc1 [Example 3, α-(4-nitrophenyl) maltotetraoside] | 0.110 mA/min/SU/dl | 10.3-13.3 mA/min and 10.3 to 13.3 mA/min | increase in sensitivity, end point determination after quenching (α-amylase [1]; reaction quenched after five minutes with 0.2 M Na2CO3 or 0.002 N NaOH, versus rate assay at pH 6.5): five to ten fold
5 | O=[N+]([O-])c1ccc(O[C@H]2O[C@H](CO)[C@@H](O[C@H]3O[C@H](CO)[C@@H](O)[C@H](O)[C@H]3O)[C@H](O)[C@H]2O)cc1 [α-(4-Nitrophenyl)maltoside] |  |  | cleavage of this compound by α-amylase (α-amylase [2]): extremely slow
6 | O=[N+]([O-])c1ccc(O[C@H]2O[C@H](CO)[C@@H](O[C@H]3O[C@H](CO)[C@@H](O[C@H]4O[C@H](CO)[C@@H](O[C@H]5O[C@H](CO)[C@@H](O)[C@H](O)[C@H]5O)[C@H](O)[C@H]4O)[C@H](O)[C@H]3O)[C@H](O)[C@H]2O)cc1 [Example 1, α-(4-nitrophenyl) maltotetraoside] | 0.115 mA/min/SU/dl | 5.0 mA/min | 
